We go through nine compounds from patent US20100160402A1, “Bisbenzimidazoles as antimalarial agents” (priority 2007, published 2010).

Several values for one entry are separate records, joined by “and”; a condition that tells them apart may be missing. Equal entries are not always repeated. Some results are limits rather than exact numbers.

Tested on in one data set: not given
Experiment: not given
Details: not given
Regarding `c1cc(OCCCCCOc2cccc(-c3nc4ccccc4[nH]3)c2)cc(-c2nc3ccccc3[nH]2)c1` [Compound 6, 2,2′-[1,5-pentanediylbis(oxy-1,3-phenylene)]bis-1H-benzimidazole], the melting point (in general, the temperature, or range, at which the solid turns liquid) lay within 240 to 243 °C.
Same read-out and setting: the result for `c1ccc2[nH]c(-c3ccc(OCCCCCCCOc4ccc(-c5nc6ccccc6[nH]5)cc4)cc3)nc2c1` [Compound 5, 2,2′-[1,7-heptanediylbis(oxy-1,4-phenylene)]bis-1H-benzimidazole] reads 298 to 301 °C; that for `c1ccc2[nH]c(-c3ccc(OCCCCCCOc4ccc(-c5nc6ccccc6[nH]5)cc4)cc3)nc2c1` [Compound 4, 2,2′-[1,6-hexanediylbis(oxy-1,4-phenylene)]bis-1H-benzimidazole], above 300 °C.
The same measure, in the same setting: the result for `c1ccc(-c2nc3ccccc3[nH]2)c(OCCCCCOc2ccccc2-c2nc3ccccc3[nH]2)c1` [Compound 7, 2,2′-[1,5-pentanediylbis(oxy-1,2-phenylene)]bis-1H-benzimidazole] reads 190 to 193 °C.
In turn, `c1ccc2[nH]c(-c3ccc(OCCCOc4ccc(-c5nc6ccccc6[nH]5)cc4)cc3)nc2c1` [Compound 1, 2,2′-[1,3-propanediylbis(oxy-1,4-phenylene)]bis-1H-benzimidazole] yielded a melting point above 300 °C.
On the same count and under the same terms, the figure for `c1ccc2[nH]c(-c3ccc(OCCCCCOc4ccc(-c5nc6ccccc6[nH]5)cc4)cc3)nc2c1` [Compound 3, 2,2′-[1,5-pentanediylbis(oxy-1,4-phenylene)]bis-1H-benzimidazole] is above 300 °C; for `c1ccc2[nH]c(-c3ccc(OCCCCOc4ccc(-c5nc6ccccc6[nH]5)cc4)cc3)nc2c1` [Compound 2, 2,2′-[1,4-butanediylbis(oxy-1,4-phenylene)]bis-1H-benzimidazole] it is above 300 °C.

The next data set deals with other strains of parasites. Put plainly: Activity against other strains of parasites (selectivity). In kind it is cell-based.
Details: not given
In the case of `c1ccc2[nH]c(-c3ccc(OCCCCCOc4ccc(-c5nc6ccccc6[nH]5)cc4)cc3)nc2c1` [Compound 3, 2,2′-[1,5-pentanediylbis(oxy-1,4-phenylene)]bis-1H-benzimidazole], the “activity against some other strains of parasites (selectivity compared to chloroquine)” value is given as “not active”.

The test system of the next data set is Plasmodium falciparum. The data set can be described thus: In vitro drug screening model against Plasmodium falciparum (drug sensitivity assay, Malstat LDH read-out). In kind it is cell-based. Particulars: Plasmodium falciparum, 72 h. On the procedure:
Malaria: In Vitro Drug Screening Model Against Plasmodium falciparum
Two strains of P. falciparum were used: 1/GHA strain (P. falGHA), derived from a Ghanese patient and chloroquine sensitive and 2/W-2 strain (P.falW2) from CDC/Indochina III and resistant to chloroquine, quinine, pyrimethamine, but susceptible to mefloquine. The strains were maintained in RPMI-1640 medium supplemented with 0.37 mM hypoxanthine, 25 mM Hepes, 25 mM NaHCO3, and 10% O+ human serum together with 2-4% washed human O+ erythrocytes (Adaptation of the procedures described by Trager, W.; Jensen J. B. Science 1976, 193, 673-677). All cultures and assays were conducted at 37° C. under an atmosphere of 4% CO2, 3% O2 and 93% N2.
Compound stock solutions were prepared in 100% DMSO at 20 mM or mg/ml (Concentrations are standard expressed in molar concentrations). The compounds were serially pre-diluted (2-fold or 4-fold) in DMSO followed by a further (intermediate) dilution in demineralized water to assure a final in-test DMSO concentration of <1%.
Assays were performed in sterile 96-well microtiter plates, each well containing 10 μl of the watery compound dilutions together with 190 μl of the malaria parasite inoculum (1% parasitaemia, 2% HCT). Parasite growth was compared to untreated-infected (100% growth) and uninfected-controls (0% growth). After 72 h incubation at 37° C., plates were frozen at −20° C. After thawing, 20 μl of each well was transferred into another plate together with 100 μl Malstat reagent (Lactate dehydrogenase (LDH)-test, according to Makler et al.: Am. J. Trop Med. Hyg, 48, 7339-741, 1993) and 20 μl of a 1/1 mixture of PES (phenazine ethosulfat, 0.1 mg/ml) and NBT (NitroBlue Tetrazolium Grade III, 2 mg/ml). The plates were kept out of light for 2 hours and change in color was measured spectrophotometrically at 655 nm. The results were expressed as % reduction in parasitaemia compared to control wells. For each compound, an IC50 was calculated.
The GHA strain was used. Compounds were tested at 5 concentrations (64-16-4-1 and 0.25 μM or μg/ml). […] Some of the compounds were evaluated in a secondary screening.
Additional strains (GHA, W2, D6, NF54) were included and the IC50-values were determined using an extended dose range (2-fold compound dilutions). Artesunate and chloroquine were included as reference drugs.
Consider `CCN(CC)CCCC(C)Nc1ccnc2cc(Cl)ccc12` (stereo not drawn) [Chloroquine, chloroquine, reference compound], for which the half-inhibitory concentration (IC50) – broadly, the point on the concentration scale where inhibition reaches its midpoint – was 50 nM and 0.04 µg/mL.
On to `C[C@H]1[C@H](OC(=O)CCC(=O)O)O[C@@H]2O[C@@]3(C)CC[C@H]4[C@H](C)CC[C@@H]1[C@@]24OO3` [Artesunate, reference compound], for which the IC50 turned out to be 5 nM.

Staying with this data set, now noted: Plasmodium falciparum; Table 2; P. falciparum, strain not given; 72 h incubation; read-out: IC50.
Take `c1cc(OCCCCCOc2cccc(-c3nc4ccccc4[nH]3)c2)cc(-c2nc3ccccc3[nH]2)c1` [Compound 6, 2,2′-[1,5-pentanediylbis(oxy-1,3-phenylene)]bis-1H-benzimidazole]: the concentration for half-maximal inhibition (IC50) was determined as 3.91 µg/mL.
As to `c1ccc(-c2nc3ccccc3[nH]2)c(OCCCCCOc2ccccc2-c2nc3ccccc3[nH]2)c1` [Compound 7, 2,2′-[1,5-pentanediylbis(oxy-1,2-phenylene)]bis-1H-benzimidazole], the IC50 turned out to be 8.31 µg/mL.
Still for that read-out and setting: the figure for `c1ccc2[nH]c(-c3ccc(OCCCOc4ccc(-c5nc6ccccc6[nH]5)cc4)cc3)nc2c1` [Compound 1, 2,2′-[1,3-propanediylbis(oxy-1,4-phenylene)]bis-1H-benzimidazole] is 16.6 µg/mL; for `c1ccc2[nH]c(-c3ccc(OCCCCCOc4ccc(-c5nc6ccccc6[nH]5)cc4)cc3)nc2c1` [Compound 3, 2,2′-[1,5-pentanediylbis(oxy-1,4-phenylene)]bis-1H-benzimidazole] it is 0.49 µg/mL.

Staying with this data set, now noted: Table 2; score in brackets after the IC50, scale not defined.
Consider `c1cc(OCCCCCOc2cccc(-c3nc4ccccc4[nH]3)c2)cc(-c2nc3ccccc3[nH]2)c1` [Compound 6, 2,2′-[1,5-pentanediylbis(oxy-1,3-phenylene)]bis-1H-benzimidazole], for which the score is recorded as 2.
`c1ccc(-c2nc3ccccc3[nH]2)c(OCCCCCOc2ccccc2-c2nc3ccccc3[nH]2)c1` [Compound 7, 2,2′-[1,5-pentanediylbis(oxy-1,2-phenylene)]bis-1H-benzimidazole]: the score was 2.
With `c1ccc2[nH]c(-c3ccc(OCCCOc4ccc(-c5nc6ccccc6[nH]5)cc4)cc3)nc2c1` [Compound 1, 2,2′-[1,3-propanediylbis(oxy-1,4-phenylene)]bis-1H-benzimidazole], the score worked out at 1.
As for `c1ccc2[nH]c(-c3ccc(OCCCCCOc4ccc(-c5nc6ccccc6[nH]5)cc4)cc3)nc2c1` [Compound 3, 2,2′-[1,5-pentanediylbis(oxy-1,4-phenylene)]bis-1H-benzimidazole], the score was found to be 3.
